This is an account of results in article PMC4104761, “Identification of a novel lytic peptide for the treatment of solid tumours” (Genes & Cancer, 2014).

The nature of series [1]: Surface plasmon resonance (SPR) binding to liposomes. The note with it: BIAcore 3000, L1 chip, curve fitting. The procedure: SPR was used to quantify the binding of Cypep-1 to phospholipid model membranes of different compositions at neutral pH (pH 7.4) and a temperature of 25 °C. 100 nm liposomes made of egg yolk […] (EYL; L-α-phosphatidylcholine; 95% purity) were employed to represent amphitropic, neutral membranes, while liposomes composed of both pig brain L-α-phosphatidylserine (PBPS) and EYL (from Avanti Polar Lipids Inc., Alabaster, Alabama, USA), with PBPS:EYL in a 1:1 M: M mixture, represented acidic, negatively charged membranes. […] [79]. The SPR analyses were carried out on a BIAcore 3000 instrument (BIAcore AB, Uppsala, Sweden) as described in Halskau et al., using a L1 sensor chip from BIAcore (BIAcore AB, Uppsala, Sweden).
In general terms: SPR reads the build-up and loss of mass on a sensor chip optically.

Series [2] relates to BALB/c mice. Description: In vivo toxicity after tail vein injection. Further details: species or system mouse. The following applies: 100 µl bolus per animal. As for the experimental part:
Cypep-1 was injected into the lateral tail vein of 37 BALB/c mice (average age 131,7 days; average weight 25.2 g). In detail, the group consisted of 18 male (average weight 26.5g) and 19 female animals (average weight 23.9g). The respective peptide concentrations administered were increased systematically from 50µg up to 800µg Cypep-1 per bolus per animal. All Cypep-1 doses were adjusted to a total injection volume of 100µl 0,9% NaCl, which remained constant for all animals. Throughout the experiment, a group of 4 animals (2 males/ 2 females) received the same Cypep-1 concentrations per bolus, respectively. All injections were performed very slowly in order to avoid cardiac stress. The mice were then observed for a period of 24h with regards to signs of distress and pain (e.g. orbital tightening, flattened ear position, formation of nose and/or cheek bulge, whisker change, overall activity level) as well as potential toxic effects. During the first 2 hours, the animals were monitored continuously and then checked again at 4 h, 6 h, 12 h and 24 h post injection.

Series [3] has as its system glioblastoma GaMg. In words: MTT viability assay. Type of series: cell-based, human. The note with it: 20 µg Cypep-1/ml, 60 min incubation, least sensitive cell line. As for the experimental part:
(§1) Cypep-1 was tested in various concentrations on a total of 17 cell lines, which included 13 human and 1 murine tumour cell line(s), as well as 3 normal human cell lines. Listed in detail: 4 human osteosarcoma (U2OS, SaOS2, HOS and MNNG-HOS), 6 human glioblastoma (A172, GaMg, LN18, U87, U373 and T98G) and 3 human mammary carcinoma cell lines (MCF7, AU565 and MDA-MB-468) as well as an additional murine mammary carcinoma cell line (4T1). Furthermore, 3 normal human cell lines were included: 2 normal human fibroblast cell lines (HFF1 and 142Br) as well as normal human osteoblasts (HOB).
(§2) MTT proliferation assays were performed on all cell lines (with the exception of 142Br (human skin fibroblasts)), using monolayers of 15 000 cells in sterile 96 well tissue culture plates (Nunc™, Roskilde, Denmark), respectively. All cells were incubated with Cypep-1 dissolved in 0.9% NaCl, at the following concentrations: 0.1, 0.5, 1.0, 5, 10, 15, 20, 25, 30 and 35µg of Cypep-1 per ml and assayed after 15, 30, 45, 60, 75, 90, 180, 270 and 360 min.
Background: Tetrazolium dyes change colour on reduction, which living cells bring about.

The test system of series [4] is mammary carcinoma AU 565. In words: MTT viability assay. Type of series: cell-based, human. The note with it: 20 µg Cypep-1/ml, 60 min incubation, most sensitive cell line. As for the experimental part: as §1, §2
A short description of series [5]: Liposome leakage assay (ANTS/DPX fluorescence). The format is biochemical. The note with it: 25°C, pH 7.4, fluorescence at 510 nm, triplicate; for leakage of ANTS from liposomes: 0 to 90 µg/ml. As for the experimental part:
To assess the membranolytic effect of Cypep-1 on the integrity of phospholipid model membranes, liposome leakage assays monitored by fluorescence spectroscopy were performed on 200 nm liposomes as described earlier. […] (purchased from CPC Scientific, San Jose, CA) was used as control in the leakage assays (Peptide A).
Negatively charged PBPS: EYL (1:1 mixture) as well as neutral pure EYL vesicles were used, in which both liposome types encapsulated the fluorochrome ANTS (8 aminonaphtalene-1,3,6 trisulfonic acid) and its corresponding quencher DPX (p-xylene-bis[N-pyridinium bromide]). In principle, a disruption of the liposomes' bi-layer induces leakage of the fluorophore ANTS. This entails an increase in fluorescence at 510 nm. All fluorescence spectra were recorded at 25°C and pH 7.4 on a Cary Eclipse Fluorescence Spectrophotometer (Varian Optical Spectroscopy Instruments, Mulgrave, Victoria, Australia). The respective titrations with Cypep-1 and the control Peptide A were performed in concentrations ranging from 0 µg/ml to 90 µg/ ml (0 µM to 26 µM). The fluorescence was measured for each concentration point of the concentration series, and all measurements were performed in triplicate. At the end of each measurement, Triton X-100 was added to a final concentration of 2 mM, to obtain the maximum membrane leakage. The resulting maximum fluorescence at 510 nm is defined as 100%, i.e. complete liposome breakdown. The induced leakages of the fluorophore ANTS due to exposure to the peptides were then evaluated as a percentage of its complete release after Triton X-100 exposure. The initial fluorescence intensity of the respective liposome solutions was defined as 0% leakage.

YGRKKRRQRRRGKTLRVAKAIYKRYIE [Cypep-1]: the “peptide concentration of half-maximal binding (S0.5)” value in series [1] (100 nm EYL liposomes, pH 7.4, 25 °C) was 39.1 ± 5.3 µg/mL; in series [1] (100 nm liposomes PBPS:EYL 1:1, pH 7.4, 25 °C), 16.2 ± 4.4 µg/mL. Further, in series [2] (slow tail vein injection), the “dose with first signs of toxicity (seizure-like catatonic stupor)” value amounted to 600 µg. For the same sequence, the “dose with no signs of distress or pain” value in series [2] (slow tail vein injection, 24 h observation) is reported as “up to 500 µg”. Also, the lethal dose in series [2] (tail vein injection, death within 5 - 10 min) is on record as 800 µg. Also, the average surviving fraction in series [3] was 33%; in series [4], 7%. Besides, the “leakage of ANTS from liposomes” value in series [5] (200 nm EYL liposomes) and in series [5] (200 nm liposomes PBPS:EYL 1:1) was “significant leakage of ANTS” in each case. Moreover, in series [5] (ANTS/DPX leakage, 200 nm liposomes PBPS:EYL 1:1, read-out: S0.5, concentration necessary to achieve membrane disruption), the EC50 was 8.3 ± 0.5 µM.
